Test results: patent publication US20140274713A1, “IONIC LIQUIDS AND USES THEREOF” (OMS Investments, Inc., priority 2013, published 2014)

Assay: Dissolution in Dowanol DPM under high shear
Type: physicochemical
Conditions: Dowanol DPM (dipropylene glycol methyl ether)

## COC(=O)c1ccccc1S(=O)(=O)NC(=O)Nc1nc(C)nc(OC)n1 [MSM, methsulfuron methyl]
  Dissolution in Dowanol DPM: did not dissolve
